Experimental data published in ChEMBL document CHEMBL2390907, “Juglone, isolated from Juglans mandshurica Maxim, induces apoptosis via down-regulation of AR expression in human prostate cancer LNCaP cells” (Bioorg Med Chem Lett, 2013).
Active and inactive are the calls of the source. No cut-off for these calls is given here.

Tests used:
LNCaP [1] = assay: Induction of apoptosis in human LNCAP cells assessed as cell shrinkage at 5 to 15 uM after 24 hrs using Hoechst 33342 staining by fluorescence microscopic analysis; type: functional, cell-based
LNCaP [2] = assay: Induction of apoptosis in human LNCAP cells assessed as decrease of prostate-specific antigen protein expression at 5 uM after 24 hrs by Western blot analysis; type: functional, cell-based
LNCaP [3] = assay: Induction of apoptosis in human LNCAP cells assessed as decrease of androgen receptor protein expression after 24 hrs by Western blot analysis; type: functional, cell-based
LNCaP [4] = assay: Induction of apoptosis in human LNCAP cells assessed as decrease of DHT-induced prostate-specific antigen mRNA expression at 15 uM treated 2 hrs before DHT challenge measured after 24 hrs by RT-PCR analysis; type: functional, cell-based
LNCaP [5] = assay: Induction of apoptosis in human LNCAP cells assessed as decrease of mitochondria membrane potential after 24 hrs using rhodamine 123 dye by flow cytometry; type: functional, cell-based
LNCaP [6] = assay: Induction of apoptosis in human LNCAP cells assessed as increase of annexin V-FITC/PI staining positive cells after 24 hrs by flow cytometry; type: functional, cell-based
LNCaP [7] = assay: Induction of apoptosis in human LNCAP cells assessed as membrane blebbing at 5 to 15 uM after 24 hrs using Hoechst 33342 staining by fluorescence microscopic analysis; type: functional, cell-based
LNCaP [8] = assay: Induction of apoptosis in human LNCAP cells assessed as decrease of androgen receptor protein expression at 5 uM after 24 hrs by Western blot analysis; type: functional, cell-based
LNCaP [9] = assay: Induction of apoptosis in human LNCAP cells assessed as cleavage of precursor of caspase-3 and 9 after 24 hrs by Western blot analysis; type: functional, cell-based
LNCaP [10] = assay: Antiproliferative activity against human LNCAP cells after 24 hrs by MTT assay; type: functional, cell-based
LNCaP [11] = assay: Induction of apoptosis in human LNCAP cells assessed as decrease of prostate-specific antigen protein expression after 24 hrs by Western blot analysis; type: functional, cell-based
LNCaP [12] = assay: Induction of apoptosis in human LNCAP cells assessed as activation of caspase-3 and 9 at 15 uM after 24 hrs by Western blot analysis relative to control; type: functional
LNCaP [13] = assay: Induction of apoptosis in human LNCAP cells assessed as nuclear condensation at 5 to 15 uM after 24 hrs using Hoechst 33342 staining by fluorescence microscopic analysis; type: functional, cell-based
LNCaP [14] = assay: Induction of apoptosis in human LNCAP cells assessed as decrease of DHT-induced androgen receptor mRNA expression at 15 uM treated 2 hrs before DHT challenge measured after 24 hrs by RT-PCR analysis; type: functional, cell-based

O=C1C=CC(=O)c2c(O)cccc21 [JUGLONE]
Activity (LNCaP [1]): Active
Activity (LNCaP [2]): inactive
Activity (LNCaP [3]): Dose-dependent effect
Activity (LNCaP [4]): Active
Activity (LNCaP [5]): Dose-dependent effect
Activity (LNCaP [6]): Dose-dependent effect
Activity (LNCaP [7]): Active
Activity (LNCaP [8]): inactive
Activity (LNCaP [9]): Dose-dependent effect
Activity (LNCaP [10]): Dose-dependent effect
IC50 (LNCaP [10]): 13.8 µM
Activity (LNCaP [11]): Dose-dependent effect
fold change (FC) (LNCaP [12]): >2.5
Activity (LNCaP [13]): Active
Activity (LNCaP [14]): Active
